Assay results taken from US9592237B2, “Use of CB1 antagonists and/or inverse agonists for the preparation of drugs that increase motor neuron excitability” (Fundacion Del Hospital Nacional De Paraplejicos Para La …, priority 2009, dated 2017).

Key:
[1] = test system: rats with moderate spinal cord lesion; assay: Modified forced run on conveyer belt, rats with moderate spinal cord lesion; assay type: in vivo, rat; conditions: 0.25 mg/Kg intraperitoneal; for improvement in resistance to fatigue (decrease in latency) with respect to carrier: 7 days after lesion, average
Method: (§1) Animals. Male adult Wistar rats were used (300-350 g; 12 weeks old), obtained from Harlan-Interfauna Ibérica (Barcelona, Spain) kept in our animal house in a light:dark cycle of 12:12 hours, receiving food and water ad libitum. The animals were handled in accordance with the guides published in the “NIH Guide for the Care and Use of Laboratory Animals”, the principles covered by the “Guidelines for the Use of Animals in Neuroscience Research” published by the American Neuroscience Society, and the European Union Guidelines (Directive 86/609/EEC). The rats were assigned to the groups with injection of carrier or the CB1 antagonists/inverse agonists (rimonabant (SR141716A) or AM281). Five uninjured animals and 3 injured animals were used for each group.
The rats were acclimatized to the conveyer belt making them walk on the belt at low speed. The forced run protocol consisted of a first session of 15 minutes run (20 m/min, 5% inclination) followed by a second session 2 hours later (Fatigue 2 h). The same protocol was repeated the following day to study the continuance of the effects observed with the treatment (Fatigue 24 h). In order to keep the rats running throughout the study, mild electric shock was used (20 mV, 1.67 Hz) and, possible, gentle touches by the experimenter's hand. The drugs were administered immediately after the first session of the first day. […]
Latency was defined as the number of seconds during the experiment where the animals touched the grille located at the end of the conveyer belt. […] The latency increase (αlatency) was calculated as the difference between the action of the rat at each time minus the values of the first session. […]
6 animals were subjected to a moderate spinal cord lesion by, using the “Infinite Horizon” motorized system (Precision Systems & Instrumentation, [PSI], Lexington, Ky.). […] The hydration state was monitored as was the presence of possible infections in the animals until the end of the experiment. […]

[2] = test system: healthy volunteers; assay: Adverse effects observed in subjects of the stimulation study; assay type: in vivo, human; conditions: single dose of 20 mg
Method: (§2) A neurophysiological examination was carried out before and 24 hours after administration of a single dose of 20 mg of rimonabant.
Nine healthy volunteers (average age±S.D 32.1±5.8 years) participated in the experiments using TMS (transcranial magnetic stimulation) and six participated in the experiments with electric stimulation. All subjects gave their informed written consent. The study was developed in accordance with the Declaration of Helsinki and approved by the Local Ethics Committee. The magnetic stimulation was developed using two Magstim 200 high-power magnetic stimulators (Magstim Co., Whitland, UK) connected to the Bistim Module during all measurements. A figure of 8 shaped coil was placed with an external diameter of 9 cm on the right motor cortex, in optimal position of the head to provoke a motor response in the contralateral first dorsal interosseous. The current induced a flow in the posteroanterior direction. The rest motor threshold (RMT) was defined as the stimulus of minimum intensity capable of producing a motor evoked response at rest (of around 50 μV in 50% of the 10 attempts). The active motor threshold (AMTtms) was defined as the stimulus of minimum intensity capable of producing a motor evoked response (around 200 μV in 50% of the 10 attempts) during the isometric contraction of the muscle tested at approximately 20% of the maximum. A constant voluntary contraction level was maintained by electromyogram display oscilloscope placed in front of the subject.
In six subjects we also performed electric stimulation of the motor cortex during voluntary contraction. This was performed with a Digitimer D180A digital stimulator with a time constant of 50 μs. The cathode was placed in the vertex and the anode at 7 cm laterally (anodic stimulation). We evaluate the active electric motor threshold (AMTtes) defined as the stimulus of minimum intensity capable of producing a motor evoked response of around 200 μV in 50% of ten attempts during the voluntary contraction.

[3] = test system: healthy volunteers; assay: Intracortical facilitation (ICF), paired-pulse TMS; assay type: in vivo, human; conditions: % of response to test stimulus without conditioning stimulus; 24 hours after single dose of 20 mg; baseline 117±21%; P=0.0212; ±SD
Method: as §2
(§3) Using transcranial magnetic stimulation (TMS) we evaluate the electromyographic response thresholds in the first dorsal interosseous (FDI) at rest and during voluntary contraction. Using transcranial electric stimulation (TES) we evaluate the electromyographic response thresholds in the first dorsal interosseous during voluntary contraction. Transcranial electric stimulation tends to activate the axons of the corticospinal neurons in the white matter whilst magnetic stimulation activates the same fibres trans-synaptically (Hallett, 2000 Jul. 13, 406 (6792):147-50). Therefore, the response evoked electrically are not as sensitive to changes in cortical excitability as those evoked by magnetic stimulation. We also evaluate short-latency intracortical facilitation (ICF). ICF was studied using the technique of Kujirai et al. (J Physiol. 1993 Nov; 471:501-19). […]
The response facilitation conditional upon the three different ISIs studied was then averaged to give a magnified average value. The amplitude of the motor evoked potentials was expressed as percentages of amplitude of the motor evoked potentials of the tests. […]

[4] = test system: Male adult Wistar rats; assay: Forced run on conveyer belt (fatigue), uninjured rats; assay type: in vivo, rat; conditions: 0.25 mg/Kg intraperitoneal; for effect on latency (Δ latency) in forced run: after injection, compared with carrier, result in words; for improvement in resistance to fatigue (decrease in latency) with respect to carrier: single injection, average
Method: as §1
The rats were acclimatized to the conveyer belt making them walk on the belt at low speed. The forced run protocol consisted of a first session of 15 minutes run (20 m/min, 5% inclination) followed by a second session 2 hours later (Fatigue 2 h). The same protocol was repeated the following day to study the continuance of the effects observed with the treatment (Fatigue 24 h). In order to keep the rats running throughout the study, mild electric shock was used (20 mV, 1.67 Hz) and, possible, gentle touches by the experimenter's hand. The drugs were administered immediately after the first session of the first day. The treatments consisted of a single intraperitoneal injection of SR141716A (0.25 mg/Kg), or AM281 (0.25 mg/Kg), or carrier (2.5% Bovine Serum Albumin, SIGMA, Spain, in 0.9% NaCl).
Latency was defined as the number of seconds during the experiment where the animals touched the grille located at the end of the conveyer belt. The animals that remained more than twice at the electric grille receiving discharges of over 10 seconds were considered exhausted and were returned to their cages. In this case, latency time was also considered the remaining time until the end of the protocol. The latency increase (αlatency) was calculated as the difference between the action of the rat at each time minus the values of the first session. Therefore, the negative measurements reflect a decrease in latency, and, therefore, an improvement in motor capacity.

[5] = test system: healthy volunteers; assay: Motor thresholds by transcranial magnetic stimulation (TMS), first dorsal interosseous; assay type: in vivo, human; conditions: % of maximum stimulator output, 24 hours after single dose of 20 mg, ±SD
Method: (§4) The objective of the present experiments was to use transcranial magnetic and electric stimulation to test the effects of a single dose of 20 mg of rimonabant in motor cortex and spinal motor neuron excitability.
as §2, §3

[6] = test system: healthy volunteers; assay: Active motor threshold by transcranial electric stimulation (TES); assay type: in vivo, human; conditions: % of maximum stimulator output; 24 hours after single dose of 20 mg; six subjects; baseline 19.6±6%; P=0.0164; ±SD
Method: as §4, §2
Using transcranial magnetic stimulation (TMS) we evaluate the electromyographic response thresholds in the first dorsal interosseous (FDI) at rest and during voluntary contraction. Using transcranial electric stimulation (TES) we evaluate the electromyographic response thresholds in the first dorsal interosseous during voluntary contraction. Transcranial electric stimulation tends to activate the axons of the corticospinal neurons in the white matter whilst magnetic stimulation activates the same fibres trans-synaptically (Hallett, 2000 Jul. 13, 406 (6792):147-50). Therefore, the response evoked electrically are not as sensitive to changes in cortical excitability as those evoked by magnetic stimulation. We also evaluate short-latency intracortical facilitation (ICF). ICF was studied using the technique of Kujirai et al. (J Physiol. 1993 Nov; 471:501-19).
In six subjects we also performed electric stimulation of the motor cortex during voluntary contraction. This was performed with a Digitimer D180A digital stimulator with a time constant of 50 μs. […]

| Compound | effect on latency (Δ latency) in forced run ([1]; 2 hours after injection compared with carriers, result in words) | improvement in resistance to fatigue (decrease in latency) with respect to carrier ([1]; 2 hours after fatigue) [s] | improvement in resistance to fatigue (decrease in latency) with respect to carrier ([1]; 24 hours after fatigue) [s] | duration of agitation and anxiety, average ([2]; affected subjects) [h] | effects on attention ([2]; healthy volunteers) | subjects with agitation and anxiety ([2]; nine healthy volunteers) | subjects with nauseas ([2]; nine healthy volunteers, during 24 h) | intracortical facilitation (ICF), mean [3] [%] | effect on latency (Δ latency) in forced run [4] | improvement in resistance to fatigue (decrease in latency) with respect to carrier ([4]; 2 hours after fatigue) [s] | improvement in resistance to fatigue (decrease in latency) with respect to carrier ([4]; 24 hours after fatigue) [s] | active motor threshold using transcranial magnetic stimulation (AMTtms), mean ([5]; baseline 39±4%, P=0.0008) [%] | resting motor threshold using transcranial magnetic stimulation (RMT), mean ([5]; baseline 48±6%, P=0.0775 (not significant)) [%] | active motor threshold using transcranial electric stimulation (AMTtes), mean [6] [%] |
| --- | --- | --- | --- | --- | --- | --- | --- | --- | --- | --- | --- | --- | --- | --- |
| Cc1c(C(=O)NN2CCCCC2)nn(-c2ccc(Cl)cc2Cl)c1-c1ccc(Cl)cc1 [rimonabant, N-(piperidin-1-yl)-5-(4-chlorophenyl)-1-(2,4-dichlorophenyl)-4-methyl-1H-pyrazole-3-carboxamide] | decreased latency | 136 | 200 | 6 | moderate | Three of the subjects experienced agitation and anxiety | one suffered nauseas | 150±40 | decreased latency | 75 | 125 | 35.5±4 | 46.5±6 | 17.5±6 |
| Cc1c(C(=O)NN2CCOCC2)nn(-c2ccc(Cl)cc2Cl)c1-c1ccc(I)cc1 [AM281] | – | – | – | – | – | – | – | – | decreased latency | 185 | 207 | – | – | – |
